Laboratory results reported in PubChem BioAssay AID1361 (SRMLSC, 2008).
Active and inactive are the calls of the source. How the calls were made is not given here.

Experiment: blockers of mitochondrial fusion, WT vs mutant – cell-based, chemical genetic, wild-type and mutant, confirmation (AID 1361)
Details: Cell-based mitochondrial fusion phenotype, imaging
[1] = mutant cells, measured here: mutant cell line IC50

CC(C)(C)[C@H]1C=C(C(=O)N2CCN(Cc3ccccc3)CC2)O[C@@H](OCc2ccc(CO)cc2)C1
IC50 (WT cells): 21.7 µM
IC50 [1]: > 25 µM

Cc1csc(NC(=O)c2cccn2C)n1
IC50 (WT cells): > 25 µM (inactive)
IC50 [1]: > 25 µM

COc1cc(/C=N/N=C(/C(=O)c2ccccc2)c2ccccc2)cc(OC)c1O
IC50 (WT cells): 16.5 µM
IC50 [1]: > 25 µM

Cc1cc(Nc2ccccc2)c2c([N+](=O)[O-])cc(C)c(C)c2n1
IC50 (WT cells): > 25 µM (inactive)
IC50 [1]: > 25 µM

O=C(C1=C[C@H](c2csc3ccccc23)C[C@H](OCc2ccc(CO)cc2)O1)N1CCN(Cc2ccc3c(c2)OCO3)CC1
IC50 (WT cells): 2.16 µM
IC50 [1]: 10.5 µM

COc1ccc(N/C(N)=N/c2nc(CSc3ccc(C)cc3)cc(=O)[nH]2)cc1
IC50 (WT cells): > 25 µM (inactive)
IC50 [1]: > 25 µM

Cc1ccc(NC(=O)c2cc(-c3ccccc3)nn2-c2ccccc2)c(Br)c1
IC50 (WT cells): 4.51 µM
IC50 [1]: > 25 µM

O=C(c1ccc2c(c1)OCO2)N(Cc1ccco1)C1(C(=O)NC2CCCCC2)CCCCC1
IC50 (WT cells): > 25 µM (inactive)
IC50 [1]: > 25 µM

CSc1ccc(OC2CCCCC2NS(=O)(=O)c2ccc(Cl)cc2)cc1 (centres undefined)
IC50 (WT cells): 16.2 µM
IC50 [1]: > 25 µM

CCOC(=O)C1=C(NC(=S)NC(=O)c2ccccc2)c2ccccc2CC12CCCC2
IC50 (WT cells): 6.33 µM
IC50 [1]: > 25 µM

CC1CCCN(c2nc3c(c(=O)[nH]c(=O)n3C)n2Cc2ccccc2Cl)C1 (centres undefined)
IC50 (WT cells): 17.4 µM
IC50 [1]: > 25 µM

COc1ccc(/C=C/C(=O)c2ccc(O)cc2)cc1COc1ccc(F)cc1
IC50 (WT cells): 11.9 µM
IC50 [1]: > 25 µM

O=C(CNC(=S)N(Cc1ccccc1)Cc1ccccc1F)NCc1ccccc1
IC50 (WT cells): 17.7 µM
IC50 [1]: > 25 µM

CCCCSc1nnc(CNC(=O)C23CC4CC(CC(C4)C2)C3)n1Cc1ccccc1
IC50 (WT cells): > 25 µM (inactive)
IC50 [1]: > 25 µM

O=C(CSc1nnc(CCc2ccccc2)n1-c1ccc(Cl)cc1)c1ccccc1
IC50 (WT cells): 17.2 µM
IC50 [1]: > 25 µM

Cn1c(=O)c(NC2CCCCC2)c2c3c(cccc31)C(=O)c1ccccc1-2
IC50 (WT cells): 11 µM
IC50 [1]: 21.1 µM

Cc1nc2ccccc2c2oc(C(=O)Nc3ccc(C(C)C)cc3)cc12
IC50 (WT cells): > 25 µM (inactive)
IC50 [1]: > 25 µM

CC(=O)N1CCC(O)(c2cccc(C(F)(F)F)c2)CC1
IC50 (WT cells): > 25 µM (inactive)
IC50 [1]: > 25 µM

COc1c(F)c(F)c(C(=O)O)c(Nc2ccccc2C)c1F
IC50 (WT cells): > 25 µM (inactive)
IC50 [1]: > 25 µM

CN1CC(c2ccccc2)C2(SC(=S)N(Cc3ccco3)C2=O)C12C(=O)Nc1ccccc12 (centres undefined)
IC50 (WT cells): 6.9 µM
IC50 [1]: 12 µM

Oc1ccccc1-c1nc(/C=C/c2ccccc2)nn1-c1ccccc1
IC50 (WT cells): 11.2 µM
IC50 [1]: 15.4 µM

CC(C)CNC(=S)N1CCN(C(c2ccccc2)c2ccccc2)CC1
IC50 (WT cells): 14.7 µM
IC50 [1]: > 25 µM

Cc1ccc(O)c(C(=O)/C=C/c2ccc3c(c2)OCCCO3)c1
IC50 (WT cells): 12.3 µM
IC50 [1]: > 25 µM

COC(=O)c1ccc(NC(=O)Nc2ccc(F)c(Cl)c2)cc1
IC50 (WT cells): 19.4 µM
IC50 [1]: > 25 µM

CCOC(=O)C1=C(CC)Nc2ccccc2N/C1=N\S(=O)(=O)c1ccc2ccccc2c1
IC50 (WT cells): 11 µM
IC50 [1]: > 25 µM

CCN(CC)CCNC(=O)Cn1c(-c2ccccn2)nc2ccccc21
IC50 [1]: > 25 µM

Cc1cccc(C(=O)NC(C(=O)Nc2nc(-c3ccccn3)cs2)C(C)C)c1 (centres undefined)
IC50 (WT cells): 20.8 µM
IC50 [1]: > 25 µM

CCOc1ccc(NCc2nnc(SCc3ccc(Cl)cc3)n2-c2ccccc2)cc1
IC50 (WT cells): > 25 µM (inactive)
IC50 [1]: > 25 µM

Cc1cccc2sc(NC(=O)c3ccc(NS(=O)(=O)c4cccs4)cc3)nc12
IC50 (WT cells): > 25 µM (inactive)
IC50 [1]: > 25 µM

c1ccc(-c2nc(N3CCCCC3)nc3ccccc23)cc1
IC50 (WT cells): 18.3 µM
IC50 [1]: 19.4 µM

O=c1[nH]c(=O)n(Cc2ccco2)c2c1C(C(F)(F)F)(C(F)(F)F)N=C(Cc1ccccc1)N2
IC50 (WT cells): > 25 µM (inactive)
IC50 [1]: > 12.5 µM

C/C1=C\[C@@H](C)C/C=C/[C@H]2[C@@H]3O[C@]3(C)[C@@H](C)[C@H]3[C@H](Cc4c[nH]c5ccccc45)NC(=O)[C@]32C(=O)/C=C/C(=O)[C@@H]1O
IC50 (WT cells): 19 µM
IC50 [1]: > 25 µM

COC(=O)c1c(NC(=O)CN2CCC3(O)CCCCC3C2c2ccccc2OC)sc(C)c1C (centres undefined)
IC50 (WT cells): 10.4 µM
IC50 [1]: > 25 µM

CC1CCN(c2nc(-c3cccnc3)nc3scc(-c4ccccc4)c23)CC1
IC50 (WT cells): 13.1 µM
IC50 [1]: > 25 µM

CSC(=S)N/N=C/c1c[nH]c2ccccc12
IC50 (WT cells): 7.53 µM
IC50 [1]: 11.2 µM

COc1cc2c(cc1NC(=O)CSc1nc3ccccc3[nH]1)oc1ccccc12
IC50 (WT cells): 11.2 µM
IC50 [1]: > 25 µM

Cc1nc2cc(C(=O)OCC(=O)NC34CC5CC(CC(C5)C3)C4)ccc2n1-c1ccccc1
IC50 (WT cells): 21.9 µM
IC50 [1]: > 25 µM

CC1(C)CC(C(CCN(Cc2ccccc2)C(=O)c2ccco2)c2ccc(F)cc2)CCO1 (centres undefined)
IC50 (WT cells): 16.8 µM
IC50 [1]: > 25 µM

CC(C)CCNC(=O)CCCOc1cc(=O)n(C)c2ccccc12
IC50 (WT cells): > 25 µM (inactive)
IC50 [1]: > 25 µM

CC(NC(=O)/C(=C/c1ccc(OC(F)F)cc1)c1ccccc1)c1ccccc1 (centres undefined)
IC50 (WT cells): 11.5 µM
IC50 [1]: > 25 µM

CC(c1ccccc1)N(CC(=O)NC1CCCCC1)S(=O)(=O)c1cccc(C(F)(F)F)c1 (centres undefined)
IC50 (WT cells): 12.4 µM
IC50 [1]: > 25 µM

CC1CN(c2oc(Cc3cccc4ccccc34)nc2C#N)CC(C)O1 (centres undefined)
IC50 (WT cells): > 25 µM (inactive)
IC50 [1]: > 25 µM

CCc1nnc(NC(=O)c2ccc(S(=O)(=O)N(CC(C)C)CC(C)C)cc2)o1
IC50 (WT cells): 22.5 µM
IC50 [1]: > 25 µM

CC(C)Cn1c(CN(Cc2ccccc2)Cc2ccccc2)nc2c1c(=O)n(C)c(=O)n2C
IC50 (WT cells): 11.5 µM
IC50 [1]: > 25 µM

Cc1cc(=O)oc(C)c1C(=O)Nc1ccc2nsnc2c1
IC50 (WT cells): > 25 µM (inactive)
IC50 [1]: > 25 µM

O=C(COC(=O)c1ccccn1)Nc1cccc(Cl)c1Cl
IC50 (WT cells): > 25 µM (inactive)
IC50 [1]: > 25 µM

CCC1Oc2ccc(C)cc2N(CC(=O)N(Cc2ccc(C)o2)C2CCCC2)C1=O (centres undefined)
IC50 (WT cells): > 25 µM (inactive)
IC50 [1]: > 25 µM

Cc1cccn2c(=O)c(C=NCc3ccco3)c(Nc3ccc(SC(F)F)cc3)nc12
IC50 (WT cells): > 25 µM (inactive)
IC50 [1]: > 25 µM

Cc1ccc(-n2nc3c(c2NC(=O)c2ccc4c(c2)OCO4)CSC3)c(C)c1
IC50 (WT cells): > 25 µM (inactive)
IC50 [1]: > 25 µM

CC(C)(C)CC(C)(C)NC(=O)Nc1cccc([N+](=O)[O-])c1
IC50 (WT cells): > 25 µM (inactive)
IC50 [1]: > 25 µM

S=c1[nH]nc(-c2cc3ccccc3o2)n1Cc1ccccc1
IC50 (WT cells): 12.5 µM
IC50 [1]: 23.1 µM

CC1CN(C(=O)N(C)C)CCN1C(=O)N(C)C (centres undefined)
IC50 (WT cells): > 25 µM (inactive)
IC50 [1]: > 25 µM

CCOc1ccc(Oc2c(/C=N/NC(=O)COc3ccccc3OC)c(C)nn2-c2ccccc2)cc1
IC50 (WT cells): 14.8 µM
IC50 [1]: > 25 µM

OC(CNCc1ccc(Cl)cc1)(c1ccccc1)c1ccc(F)cc1 (centres undefined)
IC50 (WT cells): > 25 µM (inactive)
IC50 [1]: > 25 µM

CC(C(=O)Nc1ccc(Cl)cc1Cl)N1CC=C(c2ccccc2)CC1 (centres undefined)
IC50 (WT cells): 8.63 µM
IC50 [1]: 13.3 µM

CCOC(=O)c1c(-c2ccc(C)cc2)csc1NC(=O)C1CCCO1 (centres undefined)
IC50 (WT cells): > 25 µM (inactive)
IC50 [1]: > 25 µM

O=C1CC(SCc2nc3ccccc3[nH]2)C(=O)N1c1cccc(F)c1 (centres undefined)
IC50 (WT cells): > 25 µM (inactive)
IC50 [1]: > 25 µM

CCN(Cc1cc2ccc(C)cc2[nH]c1=O)C(=O)c1ccncc1
IC50 (WT cells): > 25 µM (inactive)
IC50 [1]: > 25 µM

CC(C)(C)N=C1NN=C(c2cc3ccccc3o2)CS1
IC50 [1]: > 25 µM

Cc1ccc(-c2cc(-c3ccccc3)c(C#N)c(N)n2)o1
IC50 (WT cells): > 25 µM (inactive)
IC50 [1]: > 25 µM

Cc1ccc(SC(C)C(=O)Nc2ccccc2-c2ccccc2)cc1 (centres undefined)
IC50 (WT cells): 19.8 µM
IC50 [1]: > 25 µM

Cc1ccc(C(=O)Nc2nc(-c3ccccc3)c(-c3ccccc3)o2)cc1
IC50 (WT cells): 4.97 µM
IC50 [1]: 9.35 µM

CC(C)(C)c1ccc(NC(=O)c2ccccc2)c([N+](=O)[O-])c1
IC50 (WT cells): 24.9 µM (inactive)
IC50 [1]: > 25 µM

c1ccc2c(c1)sc1nnnn12
IC50 (WT cells): > 25 µM (inactive)
IC50 [1]: > 25 µM

N#CC1=C(N)NC(SCC(=O)c2ccc(Br)cc2)=C(C#N)C12CCCCC2
IC50 (WT cells): 19.4 µM
IC50 [1]: > 25 µM

CCCCc1ccc(NC(=S)Nc2ccc(Cl)c(S(=O)(=O)N(C)C)c2)cc1
IC50 (WT cells): 9.48 µM
IC50 [1]: > 25 µM

CN1/C(=C\C(=O)Nc2ccc(Br)cc2)C(C)(C)c2ccccc21
IC50 (WT cells): 5.66 µM
IC50 [1]: 16.7 µM

COc1ccc(-c2nsc3c(N4CCCCC4C)ncnc23)cc1 (centres undefined)
IC50 (WT cells): 18.9 µM
IC50 [1]: > 25 µM

COc1ccccc1NC1=C(Cl)C(=O)N(C2CCCCC2)C1=O
IC50 (WT cells): 23.8 µM
IC50 [1]: > 25 µM

CC(C)COC(=O)c1cccc2c1-c1ccccc1/C2=N\O
IC50 (WT cells): > 25 µM (inactive)
IC50 [1]: > 25 µM

S=c1[nH]nc(-c2ccc3ccccc3n2)n1-c1cc(Cl)cc(Cl)c1
IC50 (WT cells): 13.7 µM
IC50 [1]: > 25 µM

Cc1ccc(Cn2nc3c(cc2=O)CCc2ccccc2-3)cc1
IC50 (WT cells): > 25 µM (inactive)
IC50 [1]: > 25 µM

O=C(CN1CCN(c2ccccn2)CC1)N1c2ccccc2Sc2ccc(C(F)(F)F)cc21
IC50 (WT cells): 16 µM
IC50 [1]: > 25 µM

CC(C)(C)Nc1nc(SCc2ccccc2)nc(N2CCOCC2)n1
IC50 (WT cells): 17.3 µM
IC50 [1]: > 25 µM

CCOc1ccccc1NC(=O)C(NCC1CCCCC1)c1ccccc1 (centres undefined)
IC50 (WT cells): 14.3 µM
IC50 [1]: > 25 µM

Cc1cc(N2CCN(C(c3ccccc3)c3ccc(Cl)cc3)CC2)n2ncnc2n1 (centres undefined)
IC50 (WT cells): 13.7 µM
IC50 [1]: 22.3 µM

O=C(Oc1cccnc1)c1ccc(Cl)c(Cl)c1
IC50 (WT cells): > 25 µM (inactive)
IC50 [1]: > 25 µM

Cc1nc(-c2ccccc2)sc1-c1nc(-c2ccncc2)ncc1S(=O)(=O)c1ccccc1
IC50 (WT cells): 10.5 µM
IC50 [1]: > 25 µM

COc1ccc(OC)c2c(N)c(C#N)c(C(F)(F)C(F)(F)F)nc12
IC50 (WT cells): > 25 µM (inactive)
IC50 [1]: > 25 µM

CCc1ccc(C2=CC(c3cc(Br)ccc3F)n3ncnc3N2)cc1 (centres undefined)
IC50 (WT cells): 23.7 µM
IC50 [1]: > 25 µM

CCCCOP(=O)(c1ccc(N(C)C)cc1)C(Nc1ccccc1)c1ccccc1 (centres undefined)
IC50 (WT cells): 14.1 µM
IC50 [1]: > 25 µM

CCc1ccccc1N(CC)C(=O)CCc1nc(-c2ccc(C)cc2)no1
IC50 (WT cells): 19.6 µM
IC50 [1]: 23.2 µM

CC(C)(C)NC(=O)NC(=O)COC(=O)Cc1coc2ccc3ccccc3c12
IC50 (WT cells): 21.2 µM
IC50 [1]: > 25 µM
